Laboratory results from patent US10478421B1, “Sortilin binding compounds, formulations, and uses thereof” (University of Florida, priority 2016, dated 2019).
Residues, ends and D or L forms follow the SMILES beside them.

Biological target: T1, hsortilin (Homo sapiens, UniProt Q99523)
T1 construct: Human sortilin (hsortilin) (Ser78-Asn755) with C-terminal 6-His tag; purchased R&D Systems, Inc. (Minneapolis, Minn.)
T1 sequence (Q99523 78-755): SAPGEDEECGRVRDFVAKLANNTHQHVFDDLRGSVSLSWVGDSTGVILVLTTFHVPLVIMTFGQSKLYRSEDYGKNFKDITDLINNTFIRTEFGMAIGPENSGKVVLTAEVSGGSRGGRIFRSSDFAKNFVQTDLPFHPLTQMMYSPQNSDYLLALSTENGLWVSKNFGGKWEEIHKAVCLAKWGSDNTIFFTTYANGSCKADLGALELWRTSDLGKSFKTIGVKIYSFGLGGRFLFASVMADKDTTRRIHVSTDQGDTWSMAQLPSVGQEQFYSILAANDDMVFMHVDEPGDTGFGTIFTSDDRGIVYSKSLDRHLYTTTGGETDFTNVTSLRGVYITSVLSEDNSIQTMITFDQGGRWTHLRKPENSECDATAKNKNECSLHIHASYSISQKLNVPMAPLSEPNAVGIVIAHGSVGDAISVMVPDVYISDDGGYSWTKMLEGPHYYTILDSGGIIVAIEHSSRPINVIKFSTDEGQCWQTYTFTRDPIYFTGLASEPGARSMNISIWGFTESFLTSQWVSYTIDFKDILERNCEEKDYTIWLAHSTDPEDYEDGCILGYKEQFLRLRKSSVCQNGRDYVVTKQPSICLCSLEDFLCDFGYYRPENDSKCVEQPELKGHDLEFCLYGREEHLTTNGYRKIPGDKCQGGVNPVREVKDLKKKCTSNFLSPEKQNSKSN
Experiment: Surface plasmon resonance on hsortilin immobilized on CM7 chips (Example 2)
Format: binding
Procedure: Surface plasmon resonance (SPR) measurements were performed on a Biacore T200 instrument equipped with two separate CM7 sensor chips, one with about 20,000 response units (RU) and another with about 27,000 RU of hsortilin covalently immobilized. […] For all other SPR injections, regeneration consisted of injections of running buffer alone. GE BIAcore T200 evaluation software version 3.0 (BIAevaluate) was used to analyze and export results. […] PIP3 containing nanodiscs were flowed at 2:1 dilutions to obtain kinetic data fitted using about 27,000 RU CM7 surface. Kinetic fit generated with BIAevaluate and local Rmax using Langmuir 1:1 binding model exported from BIAevaluate to Microsoft Excel 2016 with fit indicated by the black line.

Kd (C-term NT alone, steady state) [nM] | IC50 (100 nM NT, read-out: IC50 for inhibition of full length NT binding to sortilin) [nM] | Structure (SMILES)
138 | – | CC[C@H](C)[C@H](NC(=O)[C@H](Cc1ccc(O)cc1)NC(=O)[C@@H]1CCCN1)C(=O)N[C@@H](CC(C)C)C(=O)O [C-term NT, P—Y-I-L, reference compound] (H-PYIL-OH; N-terminus and C-terminus assumed)
– | ~750 | CCCC(=O)OC[C@H](COP(=O)(O)O[C@H]1[C@H](O)[C@@H](OP(=O)(O)O)[C@H](OP(=O)(O)O)[C@@H](OP(=O)(O)O)[C@H]1O)OC(=O)CCC [diC4-PIP3, dibutanoyl PIP3, reference compound]
